This is an account of results in patent US11679097B2, “Combination product containing limonoid compound and biguanide compound” (ZHEJIANG YANGSHENGTANG INSTITUTE OF NATURAL MEDICATION CO., …, priority 2017, dated 2023).

Common to all, as to type: in vivo
One test concerns db/db mice. Kind of test: Blood glucose and leptin in mouse model of type II diabetes (Example 2). As to conditions: single administration 0.04 g/kg per day by gavage, two weeks. An excerpt: Effects of a Limonoid Compound, Metformin or a Combination Thereof on Blood Glucose and Leptin in a Mouse Model of Type II Diabetes In the present example, db/db mice (line name BKS.Cg-Dock7^m+/+ Lepr^db/Nju) were used to perform hypoglycemic efficacy evaluation test of animals (blood glucose level and leptin). […] Conditions for experimental feeding: as type II diabetes model mice, 6-week-old SPF-grade db/db mice were purchased from the Nanjing Model Biology Institute, and subjected to experimental feeding after 7 days of preliminary feeding. […] The experimental feed was mouse growth-stable feed (GB […]), and the daily feeding and management of the animals were under the responsibility of the animal security department, which provided the animals with sufficient padding and fresh drinking water daily. Experimental grouping: male db/db mice (20±2 g) were selected, and 18 male mice in each group were tested. […] Gavage doses: obacunone at a dose of 0.04 g/kg was gavaged per day for the obacunone group, isoobacunoic acid at a dose of 0.04 g/kg was gavaged per day for the isoobacunoic acid group, obacunone 17-β-D-glucopynoside at a dose of 0.04 g/kg was gavaged per day for the obacunone 17-β-D-glucopynoside group, metformin at a dose of 0.04 g/kg was gavaged per day for the metformin group, obacunone at a dose of 0.02 g/kg and metformin at a dose of 0.02 g/kg were simultaneously gavaged per day for the obacunone/metformin combination group, isoobacunoic acid at a dose of 0.02 g/kg and metformin at a dose of 0.02 g/kg were simultaneously gavaged per day for the isoobacunoic acid/metformin combination group, obacunone 17-β-D-glucopynoside at a dose of 0.02 g/kg and metformin at a dose of 0.02 g/kg were simultaneously gavaged per day for the obacunone 17-β-D-glucopynoside/metformin combination group, the gavage volume was 10 mL/kg, and the normal group and the model group were administrated with 10 mL/kg of distilled water. […] The data were expressed as mean and standard deviation. The data before and after were analyzed by t-test, and P<0.05 was considered statistically significant.

Test [1] concerns STZ mice. Kind of test: Blood glucose in mouse pancreatic islet β-cell injury model (Example 1). The note with it: STZ ICR mice; single administration 0.02 g/kg per day by gavage, two weeks; 1 h after last administration. An excerpt: Effects of a Limonoid Compound, Metformin or a Combination Thereof on Blood Glucose in a Mouse Pancreatic Islet β-Cell Injury Model In this example, a mouse pancreatic islet β-cell injury model was established by modeling ICR mice with streptozotocin (STZ) (referred to the prior art literature: Li Nan et al., Protective effect of pine pollen on kidney damage in diabetic nephropathy mice, Science and Technology Review, 2014, 32 (4/5): 95-99), and used to complete the evaluation of hypoglycemic effect in animals (this model could simulate pancreatic islet β-cell damage state of type I and type II diabetics). […] Conditions of experimental feeding: ICR mice (20±2 g), aged 6 weeks, purchased from Zhejiang Academy of Medical Sciences, and subjected to experimental feeding after 7 days of preliminary feeding. […] The experimental feed was mouse growth-stable feed (GB […]), and the daily feeding and management of the animals were under the responsibility of the animal security department, which provided the animals with sufficient padding and fresh drinking water daily. Experimental grouping: 15 male mice were randomly selected as the normal control group. […] Gavage doses: the gavage dose was 0.02 g/kg per day for the limonin group, the gavage dose was 0.02 g/kg per day for the isolimonic acid group, the gavage dose was 0.02 g/kg per day for the limonin 17-β-D-glucopyranoside group, the gavage dose of metformin was 0.02 g/kg per day for the metformin group, limonin at a dose of 0.01 g/kg and metformin at a dose of 0.01 g/kg were simultaneously gavaged per day for the limonin/metformin combination group, isolimonic acid at a dose of 0.01 g/kg and metformin at a dose of 0.01 g/kg were simultaneously gavaged per day for the isolimonic acid/metformin combination group, limonin 17-β-D-glucopyranoside at a dose of 0.01 g/kg and metformin at a dose of 0.01 g/kg were simultaneously gavaged per day for the limonin 17-β-D-glucopyranoside/metformin combination group, isolimonic acid 17-β-D-glucopyranoside at a dose of 0.01 g/kg and metformin at a dose of 0.01 g/kg were simultaneously gavaged per day for the isolimonic acid 17-β-D-glucopyranoside/metformin combination group, the gavage volume was 10 mL/kg, and the normal group and the model group were administrated with 10 mL/kg of distilled water. […] SPSS 16.0 software was used for statistical analysis. The data were expressed as mean and standard deviation. The data before and after were analyzed by t-test, and P<0.05 was considered statistically significant.

The test system of test [2] is STZ mice. Kind of test: Blood glucose in mouse model of type II diabetes with pancreatic islet damage and obesity (Example 5). The note with it: high-fat diet + STZ ICR mice; single administration 0.5 g/kg per day by gavage, three weeks. How it is done:
It should be noted that the conditions for raising the mice were as follows: the temperature was 23±1° C., the humidity was 55±10%, the lights were turned on between 7 am and 7 pm (the lights were turned off at other time), and the mice were allowed to access to water and feed freely. The experimental feed was mouse growth-stable feed (GB M2118), and the daily feeding and management of the animals were under the responsibility of the animal security department, which provided the animals with sufficient padding and fresh drinking water daily.
SPSS 16.0 software was used for statistical analysis.

Turning to `CN(C)C(=N)NC(=N)N` [Metformin, N,N-dimethylimidodicarbonimidic diamide, reference compound], the Leptin with db/db mice (serum, Elisa) was found to be 34.49 ± 3.38 pg/mL. Also, the Blood glucose value is 15.5 ± 3.6 mmol/L with db/db mice (1 h after last administration), 22.6 ± 3.9 mmol/L in the test with STZ mice [1] and 17.9 ± 3.6 mmol/L in the test with STZ mice [2].
